We go through 18 compounds from patent publication US12084472B2 (Ardelyx, Inc., priority 2015, dated 2024).

In the assay the target is T1, human TGR5 (Homo sapiens, UniProt Q8TDU6).
T1 construct: expressed in transfected cells; host or cells: HEK293
T1 sequence (Q8TDU6 1-330): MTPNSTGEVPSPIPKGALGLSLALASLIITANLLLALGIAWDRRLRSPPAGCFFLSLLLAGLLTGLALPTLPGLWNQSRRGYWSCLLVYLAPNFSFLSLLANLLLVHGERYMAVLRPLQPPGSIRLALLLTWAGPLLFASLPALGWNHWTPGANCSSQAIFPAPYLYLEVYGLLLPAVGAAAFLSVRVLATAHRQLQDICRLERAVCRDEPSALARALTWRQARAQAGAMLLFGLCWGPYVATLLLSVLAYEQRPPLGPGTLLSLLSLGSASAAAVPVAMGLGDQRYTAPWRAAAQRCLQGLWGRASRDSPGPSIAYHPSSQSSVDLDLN
As to the kind of experiment: Cell-based TGR5 assay (cAMP generation, HTRF). The note with it: HEK293 cells stably transfected with human TGR5; cAMP by HTRF; 30 minutes at 37° C.; read-out: pEC50 Human TGR5 (converted). Summed up:
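First, compounds in 3-fold serial dilution were placed in HBSS with 10 mM HEPES pH 7.4 and 0.5 mM IBMX. Next, human TGR5-expressing HEK293 cells were added and incubated 30 min at 37° C. Finally, cAMP was detected by HTRF and pEC50 derived by logistic fitting.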
A general note: TR-FRET usually uses a lanthanide donor and a delayed reading to cut background.
For the compound `CN(CCCCSc1ccc(Cl)c(COC2(c3cnccc3-c3ccccc3OC3CC3)CC2)c1)C(=O)[C@@H](O)[C@@H](O)[C@H](O)[C@@H](O)CO` [Compound I-510, (2S,3S,4R,5S)-N-(4-{[4-chloro-3-({11-[4-(2-cyclopropoxyphenyl)pyridin-3-yl]cyclopropoxy}methyl)phenyl]sulfanyl}butyl)-2,3,4,5,6-pentahydroxy-N-methylhexanamide], the EC50 is less than 100 nM.
Then `O=C(NCCCCc1cc(Cl)c(CNC2(c3cnccc3-c3ccccc3OC3CC3)CC2)cc1Cl)NC[C@H](O)[C@@H](O)[C@H](O)[C@H](O)CO` [Compound I-138, 1-(4-{2,5-dichloro-4-[({1-[4-(2-cyclopropoxyphenyl)pyridin-3-yl]cyclopropyl}amino)methyl]phenyl}butyl)-3-[(2S,3R,4R,5R)-2,3,4,5,6-pentahydroxyhexyl]urea], with less than 100 nM; and `CS(=O)(=O)NCCCN(CCCSc1ccc(Cl)c(COC2(c3cnccc3-c3ccccc3OC3CC3)CC2)c1)C(=O)[C@@H](O)[C@@H](O)[C@H](O)[C@@H](O)CO` [Compound I-592, (2S,3S,4R,5S)-N-(3-{[4-chloro-3-({1-[4-(2-cyclopropoxyphenyl)pyridin-3-yl]cyclopropoxy}methyl)phenyl]sulfanyl}propyl)-2,3,4,5,6-pentahydroxy-N-(3-methanesulfonamidopropyl) hexanamide], with 126 to 1000 nM; and `CC(C)(NCc1cc(Cl)ccc1Cl)c1cnccc1-c1ccccc1OC1CC1` [Compound I-723, 2-(4-(2-Cyclopropoxyphenyl)pyridin-3-yl)-N-(2,5-dichlorobenzyl)propan-2-amine], with less than 100 nM.
The value for `O=S(=O)(NC[C@H](O)[C@@H](O)[C@H](O)[C@H](O)CO)c1ccc(Cl)c(COC2(c3cnccc3-c3ccccc3OC3CC3)CC2)c1` [Compound I-397, (2S,3R,4R,5R)-S-[4-chloro-3-({1-[4-(2-cyclopropoxyphenyl)pyridin-3-yl]cyclopropoxy}methyl)phenyl]-2,3,4,5,6-pentahydroxyhexane-1-sulfonamido] was 126 to 1000 nM; that for `C[C@@H](CCCCN)c1ccc(Cl)c(CNC2(c3cnccc3-c3ccccc3OC3CC3)CC2)c1` (single isomer, unassigned) [Compound I-243] was 126 to 1000 nM.
In the case of `C[C@H](CCCN)c1ccc(Cl)c(CNC2(c3cnccc3-c3ccccc3OC3CC3)CC2)c1` (single isomer, unassigned) [Compound I-251], the EC50 was less than 100 nM.
Then `Clc1ccc(Cl)c(COC2(c3cnccc3-c3ccccc3OC3CC3)COC2)c1` [Compound I-59, 4-(2-cyclopropoxyphenyl)-3-[3-[(2,5-dichlorophenyl)methoxy]oxetan-3-yl]pyridine], with less than 100 nM; and `Fc1ccc(-c2ccncc2C2(NCc3cc(Cl)ccc3Cl)CC2)c(OC2CC2)c1` [Compound I-18, 1-[4-(2-cyclopropoxy-4-fluorophenyl)pyridin-3-yl]-N-[(2,5-dichlorophenyl)methyl]cyclopropan-1-amine], with less than 100 nM.
Then `CC(=O)N(CCCC(C)c1ccc(Cl)c(CNC2(c3cnccc3-c3ccccc3OC3CC3)CC2)c1)C[C@H](O)[C@@H](O)[C@H](O)[C@H](O)CO` (stereo partly drawn) [Compound I-377, N-(4-{4-chloro-3-[({1-[4-(2-cyclopropoxyphenyl)pyridin-3-yl]cyclopropyl}amino)methyl]phenyl}pentyl)-N-[(2S,3R,4R,5R)-2,3,4,5,6-pentahydroxyhexyl]acetamide], with less than 100 nM; and `Cc1ccc(SCCCC(=O)N(C)C[C@H](O)[C@@H](O)[C@H](O)[C@H](O)CO)nc1CNC1(c2cnccc2-c2ccccc2OC2CC2)CC1` [Compound I-654, 4-({6-[({1-[4-(2-cyclopropoxyphenyl)pyridin-3-yl]cyclopropyl}amino)methyl]-5-methylpyridin-2-yl}sulfanyl)-N-methyl-N-[(2S,3R,4R,5R)-2,3,4,5,6-pentahydroxyhexyl]butanamide], with 1260 to 10000 nM.
For the compound `Cc1cc(COC2(c3cnccc3-c3ccccc3OC3CC3)CC2)c(Cl)cc1CCCCNC(=O)N[C@@H](C(=O)O)[C@@H](O)[C@H](O)[C@H](O)CO` [Compound I-106, (2R,3R,4S,5R)-2-[({4-[5-chloro-4-({1-[4-(2-cyclopropoxyphenyl)pyridin-3-yl]cyclopropoxy}methyl)-2-methylphenyl]butyl}carbamoyl)amino]-3,4,5,6-tetrahydroxyhexanoic acid], the EC50 is less than 100 nM.
Then `CN(CC(=O)O)CC(=O)N(CCCCc1cc(Cl)c(CNC2(c3cnccc3-c3ccccc3OC3CC3)CC2)cc1Cl)C[C@H](O)[C@@H](O)[C@H](O)[C@H](O)CO` [Compound I-200, 2-({[(4-{2,5-dichloro-4-[({1-[4-(2-cyclopropoxyphenyl)pyridin-3-yl]cyclopropyl}amino)methyl]phenyl}butyl)[(2S,3R,4R,5R)-2,3,4,5,6-pentahydroxyhexyl]carbamoyl]methyl}(methyl)amino) acetic acid], with 1260 to 10000 nM.
Then `O=C(NCCCCCSc1ccc(Cl)c(COC2(c3cnccc3-c3ccccc3OC3CC3)CC2)c1)N[C@@H](CO)[C@@H](O)[C@H](O)[C@H](O)CO` [Compound I-636, 1-(5-{[4-chloro-3-({1-[4-(2-cyclopropoxyphenyl)pyridin-3-yl]cyclopropoxy}methyl)phenyl]sulfanyl}pentyl)-3-[(2S,3R,4S,5R)-1,3,4,5,6-pentahydroxyhexan-2-yl]urea], with less than 100 nM; and `Cc1cc(COC2(c3cnccc3-c3ccccc3OC3CC3)CC2)c(Cl)cc1CCCCNC(=O)N(CCO)C[C@H](O)[C@@H](O)[C@H](O)[C@H](O)CO` [Compound I-107, 1-{4-[5-chloro-4-({1-[4-(2-cyclopropoxyphenyl)pyridin-3-yl]cyclopropoxy}methyl)-2-methylphenyl]butyl}-3-(2-hydroxyethyl)-3-[(2S,3R,4R,5R)-2,3,4,5,6-pentahydroxyhexyl]urea], with less than 100 nM; and `CS(=O)(=O)CCCN(CCCCSc1ccc(Cl)c(CNC2(c3cnccc3-c3ccccc3OC3CC3)CC2)c1)C(=O)[C@@H](O)[C@@H](O)[C@H](O)[C@@H](O)CO` [Compound I-532, (2S,3S,4R,5S)-N-[4-({4-chloro-3-[({1-[4-(2-cyclopropoxyphenyl)pyridin-3-yl]cyclopropyl}amino)methyl]phenyl}sulfanyl)butyl]-2,3,4,5,6-pentahydroxy-N-(3-methanesulfonylpropyl) hexanamide], with less than 100 nM.
Then `CS(=O)(=O)CCN(CCCCCc1cc(Cl)c(COC2(c3cnccc3-c3ccccc3OC3CC3)CC2)cc1Cl)C(=O)[C@@H](O)[C@@H](O)[C@H](O)[C@@H](O)CO` (stereo in doubt) [Compound I-226, (2S,3S,4R,5S)-N-{5-[2,5-dichloro-4-({1-[4-(2-cyclopropoxyphenyl)pyridin-3-yl]cyclopropoxy}methyl)phenyl]pentyl}-2,3,4,5,6-pentahydroxy-N-(2-methanesulfonylethyl)hexanamide], with less than 100 nM; and `Cc1cc(COC2(c3cnccc3-c3ccccc3OC3CC3)CC2)c(Cl)cc1CCCCN(CCOCCO)C(=O)NC[C@H](O)[C@@H](O)[C@H](O)[C@H](O)CO` [Compound I-117, 1-{4-[5-chloro-4-({1-[4-(2-cyclopropoxyphenyl)pyridin-3-yl]cyclopropoxy}methyl)-2-methylphenyl]butyl}-1-[2-(2-hydroxyethoxy)ethyl]-3-[(2S,3R,4R,5R)-2,3,4,5,6-pentahydroxyhexyl]urea], with less than 100 nM.
